According to patent US8119563B2, “N-substituted azacycles” (FMC Corporation, priority 2003, dated 2012):

Tested on: tobacco budworm (Heliothis virescens [Fabricius])
Assay: surface-treated diet test, insecticidal activity against tobacco budworm
Type: in vivo
Settings: 0.25 millimoles of candidate insecticide on the surface of the diet, second instar larvae, five-day exposure; for Percent Mortality: compared to total number of insects infested; for Percent Growth Inhibition: inhibition of insect weight relative to untreated controls
Outline: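 Wheat germ artificial diet surface-treated with compound from 50 mM DMSO stock diluted 1:7 in 1:1 water/acetone (0.25 millimolar on diet), or lower-rate dilutions; DMSO-only controls. One second-instar larva per well, 25° C, 60% RH, 14 h light, five days; percent weight inhibition versus untreated and percent mortality scored.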

Compound | Percent Mortality | Percent Growth Inhibition
[O-][N+]1(Cc2ccc(Oc3ccccn3)cc2)CCC(O)(C(c2ccc(OC(F)(F)F)cc2)c2cccc(Cl)c2Cl)CC1 (centres unmarked) [Compound 456] | 100% | 100%
[O-][N+]1(Cc2ccc(Oc3ccccn3)cc2)CCC(O)(C(c2ccc(OC(F)(F)F)cc2)c2cc(Cl)cc(Cl)c2)CC1 (centres unmarked) [Compound 457] | 100% | 100%
[O-][N+]1(Cc2ccc(Oc3ccccn3)cc2)CCC(O)(C(c2ccc(OC(F)(F)F)cc2)c2cccc(Cl)c2)CC1 (centres unmarked) [Compound 458] | 100% | 100%
[O-][N+]1(Cc2ccc(Oc3ccccn3)cc2)CCC(O)(C(c2ccc(OC(F)(F)F)cc2)c2ccccc2Cl)CC1 (centres unmarked) [Compound 459] | 100% | 100%
[O-][N+]1(Cc2ccc(Oc3ccccn3)cc2)CCC(O)(C(c2ccc(OC(F)(F)F)cc2)c2cc(Cl)ccc2Cl)CC1 (centres unmarked) [Compound 460] | 100% | 100%
Cc1cc(Cl)ccc1C(c1ccc(OC(F)(F)F)cc1)C1(O)CC[N+]([O-])(Cc2ccc(Oc3ccccn3)cc2)CC1 (centres unmarked) [Compound 461] | 100% | 100%
Cc1cc(C(c2ccc(OC(F)(F)F)cc2)C2(O)CC[N+]([O-])(Cc3ccc(Oc4ccccn4)cc3)CC2)ccc1Cl (centres unmarked) [Compound 462] | 100% | 100%
[O-][N+]1(Cc2ccc(Oc3ccccn3)cc2)CCC(O)(C(c2ccc(OC(F)(F)F)cc2)c2ccc(Cl)cc2F)CC1 (centres unmarked) [Compound 463] | 100% | 100%
[O-][N+]1(Cc2ccc(Oc3ccccn3)cc2)CCC(O)(C(c2ccc3c(c2)OC(F)(F)O3)c2ccc3c(c2)OC(F)(F)O3)CC1 (centres unmarked) [Compound 464] | 100% | 100%
COc1cc(C[N+]2([O-])CCC(O)(C(c3ccc(OC(F)(F)F)cc3)c3ccc(OC(F)(F)F)cc3)CC2)ccc1Oc1ccccn1 (centres unmarked) [Compound 465] | 100% | 100%
CC(=O)NCC1(C(c2ccc(C(F)(F)F)cc2)c2ccc(C(F)(F)F)cc2)CC[N+]([O-])(Cc2ccc(Oc3ncccn3)cc2)CC1 (centres unmarked) [Compound 466] | 17% | 100%
[N-]=[N+]=NCC1(C(c2ccc(C(F)(F)F)cc2)c2ccc(C(F)(F)F)cc2)CC[N+]([O-])(Cc2ccc(OCC3CC3)cc2)CC1 (centres unmarked) [Compound 467] | 50% | 100%
CC(=O)OCC1(C(c2ccc(C(F)(F)F)cc2)c2ccc(C(F)(F)F)cc2)CC[N+]([O-])(Cc2ccc(Oc3ncccn3)cc2)CC1 (centres unmarked) [Compound 468] | 17% | 100%
OC(COc1ccc(Cl)cc1)CN1CCC(O)(C(c2ccc(OC(F)(F)F)cc2)c2ccc(OC(F)(F)F)cc2)CC1 (centres unmarked) [Compound 470] | 17% | 89%
OC(COc1cccc(Cl)c1)CN1CCC(O)(C(c2ccc(OC(F)(F)F)cc2)c2ccc(OC(F)(F)F)cc2)CC1 (centres unmarked) [Compound 471] | 0% | 82%
OC(COc1ccccc1Cl)CN1CCC(O)(C(c2ccc(OC(F)(F)F)cc2)c2ccc(OC(F)(F)F)cc2)CC1 (centres unmarked) [Compound 472] | 17% | 93%
OC1(C(c2ccc(OC(F)(F)F)cc2)c2ccc(OC(F)(F)F)cc2)CCN(CCCOc2ccc(Cl)cc2)CC1 [Compound 473] | 100% | 100%
OC1(C(c2ccc(OC(F)(F)F)cc2)c2ccc(OC(F)(F)F)cc2)CCN(CCc2ccc(Cl)cc2)CC1 [Compound 474] | 83% | 100%
OC1(C(c2ccc(OC(F)(F)F)cc2)c2ccc(OC(F)(F)F)cc2)CCN(CCOc2ccc(Cl)cc2)CC1 [Compound 475] | 100% | 100%
OC1(C(c2ccc(OC(F)(F)F)cc2)c2ccc(OC(F)(F)F)cc2)CCN(CCCCOc2ccc(Cl)cc2)CC1 [Compound 476] | 67% | 100%
OC1(C(c2ccc(OC(F)(F)F)cc2)c2ccc(OC(F)(F)F)cc2)CCN(CCOc2ccc(Br)cc2)CC1 [Compound 477] | 100% | 100%
[O-][N+]1(CCOc2ccc(Cl)cc2)CCC(O)(C(c2ccc(OC(F)(F)F)cc2)c2ccc(OC(F)(F)F)cc2)CC1 (centres unmarked) [Compound 478] | 100% | 100%

Compound | Percent Mortality | Percent Growth Inhibition
[O-][N+]1(CCc2ccc(Cl)cc2)CCC(O)(C(c2ccc(OC(F)(F)F)cc2)c2ccc(OC(F)(F)F)cc2)CC1 (centres unmarked) [Compound 479] | 100% | 100%
[O-][N+]1(CCCCOc2ccc(Cl)cc2)CCC(O)(C(c2ccc(OC(F)(F)F)cc2)c2ccc(OC(F)(F)F)cc2)CC1 (centres unmarked) [Compound 480] | 100% | 100%
[O-][N+]1(CCCOc2ccc(Cl)cc2)CCC(O)(C(c2ccc(OC(F)(F)F)cc2)c2ccc(OC(F)(F)F)cc2)CC1 (centres unmarked) [Compound 481] | 100% | 100%
[O-][N+]1(CCOc2ccc(Br)cc2)CCC(O)(C(c2ccc(OC(F)(F)F)cc2)c2ccc(OC(F)(F)F)cc2)CC1 (centres unmarked) [Compound 482] | 100% | 100%
CCON=Cc1ccc(C[N+]2(O)CCC(O)(C(c3ccc(OC(F)(F)F)cc3)c3ccc(OC(F)(F)F)cc3)CC2)cc1.O=S(=O)([O-])CCCO (centres unmarked) [Compound 483] | 100% | 100%
CCOC(C)C(=O)[O-].CCON=Cc1ccc(C[N+]2(O)CCC(O)(C(c3ccc(OC(F)(F)F)cc3)c3ccc(OC(F)(F)F)cc3)CC2)cc1 (centres unmarked) [Compound 484] | 100% | 100%
CCCCC(CC)C(=O)[O-].OC1(C(c2ccc(OC(F)(F)F)cc2)c2ccc(OC(F)(F)F)cc2)CC[N+](O)(Cc2ccc(Oc3ccc(Cl)nn3)cc2)CC1 (centres unmarked) [Compound 485] | 100% | 100%
CCCCC(CC)C(=O)[O-].CCON=Cc1ccc(C[N+]2(O)CCC(O)(C(c3ccc(OC(F)(F)F)cc3)c3ccc(OC(F)(F)F)cc3)CC2)cc1 (centres unmarked) [Compound 486] | 100% | 100%
CCON=Cc1ccc(C[N+]2(O)CCC(O)(C(c3ccc(OC(F)(F)F)cc3)c3ccc(OC(F)(F)F)cc3)CC2)cc1.O=S(=O)([O-])C(F)(F)C(F)(F)C(F)(F)C(F)(F)F (centres unmarked) [Compound 487] | 100% | 100%
O=C(O)CC(O)(CC(=O)O)C(=O)[O-].OC1(C(c2ccc(C(F)(F)F)cc2)c2ccc(C(F)(F)F)cc2)CC[N+](O)(Cc2ccc(Oc3ccc(Cl)nn3)cc2)CC1 (centres unmarked) [Compound 488] | 100% | 100%
NC(=O)CON=Cc1ccc(C[N+]2(O)CCC(O)(C(c3ccc(OC(F)(F)F)cc3)c3ccc(OC(F)(F)F)cc3)CC2)cc1.O=C(O)CC(O)(CC(=O)O)C(=O)[O-] (centres unmarked) [Compound 489] | 100% | 100%
CC1(C)[C@@H]2CCC1(CS(=O)(=O)[O-])C(=O)C2.CCON=Cc1ccc(C[N+]2(O)CCC(O)(C(c3ccc(OC(F)(F)F)cc3)c3ccc(OC(F)(F)F)cc3)CC2)cc1 (centres unmarked) [Compound 490] | 100% | 100%
CCON=Cc1ccc(C[N+]2(O)CCC(O)(C(c3ccc(OC(F)(F)F)cc3)c3ccc(OC(F)(F)F)cc3)CC2)cc1.CCS(=O)(=O)[O-] (centres unmarked) [Compound 491] | 100% | 100%
O=C(O)CC(O)(CC(=O)O)C(=O)[O-].OC1(C(c2ccc(OC(F)(F)F)cc2)c2ccc(OC(F)(F)F)cc2)CC[N+](O)(Cc2ccc(Oc3ccc(Cl)nn3)cc2)CC1 (centres unmarked) [Compound 492] | 100% | 100%
CCON=Cc1ccc(C[N+]2(O)CCC(O)(C(c3ccc(OC(F)(F)F)cc3)c3ccc(OC(F)(F)F)cc3)CC2)cc1.O=C([O-])C1CCCCC1 (centres unmarked) [Compound 493] | 100% | 100%
CCON=Cc1ccc(C[N+]2(O)CCC(O)(C(c3ccc(OC(F)(F)F)cc3)c3ccc(OC(F)(F)F)cc3)CC2)cc1.O=C(O)CC(O)(CC(=O)O)C(=O)[O-] (centres unmarked) [Compound 494] | 100% | 100%
CCON=Cc1ccc(C[N+]2(O)CCC(O)(C(c3ccc(OC(F)(F)F)cc3)c3ccc(OC(F)(F)F)cc3)CC2)cc1.O=S(=O)([O-])C(F)(F)C(F)(F)C(F)(F)C(F)(F)C(F)(F)C(F)(F)C(F)(F)C(F)(F)F (centres unmarked) [Compound 495] | 100% | 100%
O=S(=O)([O-])C(F)(F)C(F)(F)C(F)(F)C(F)(F)C(F)(F)C(F)(F)C(F)(F)C(F)(F)F.OC1(C(c2ccc(OC(F)(F)F)cc2)c2ccc(OC(F)(F)F)cc2)CC[N+](O)(Cc2ccc(Oc3ccccn3)cc2)CC1 (centres unmarked) [Compound 496] | 100% | 100%
OC1(C(c2ccc(OC(F)(F)F)cc2)c2ccc(OC(F)(F)F)cc2)CC[N+](O)(Cc2ccc(Oc3ccccn3)cc2)CC1.[Cl-] (centres unmarked) [Compound 497] | 100% | 100%
CC1(C)[C@H]2CCC1(CS(=O)(=O)[O-])C(=O)C2.OC1(C(c2ccc(OC(F)(F)F)cc2)c2ccc(OC(F)(F)F)cc2)CC[N+](O)(Cc2ccc(Oc3ccccn3)cc2)CC1 (centres unmarked) [Compound 498] | 100% | 100%
CCCCC(CC)C(=O)[O-].OC1(C(c2ccc(OC(F)(F)F)cc2)c2ccc(OC(F)(F)F)cc2)CC[N+](O)(Cc2ccc(Oc3ccccn3)cc2)CC1 (centres unmarked) [Compound 499] | 100% | 100%
